Remaining binding data for one molecule are collected here from publication PMC10507085, “Pharmacological inhibition of TBK1/IKKε blunts immunopathology in a murine model of SARS-CoV-2 infection” (Nature Communications, 2023).

Molecules are shown by their SMILES.

Among the targets are LATS2 (Homo sapiens, UniProt Q9NRM7); ROCK2 (Homo sapiens, UniProt O75116); CSNK1E (Homo sapiens, UniProt P49674); PRKACB (Homo sapiens, UniProt P22694); SIK1 (Homo sapiens, UniProt P57059); CDC42BPA (Homo sapiens, UniProt Q5VT25); DDR2 (Homo sapiens, UniProt Q16832); RIPK2 (Homo sapiens, UniProt O43353); MARK4 (Homo sapiens, UniProt Q96L34); ROS1 (Homo sapiens, UniProt P08922); DAPK3 (Homo sapiens, UniProt O43293); TNNI3K (Homo sapiens, UniProt Q59H18); RIPK1 (Homo sapiens, UniProt Q13546); MAP2K7 (Homo sapiens, UniProt O14733).

Assay in all cases: biochemical
Parameters in all cases: KINOMEscan competition binding, DNA-tagged kinase against immobilised ligand, qPCR read-out
Conditions in all cases: read-out: Percent Control
A general note: Quantitative PCR measures a nucleic acid by following its amplification.

In experiment [1] the target is T1, TYK2(JH1domain-catalytic) (Homo sapiens, UniProt P29597).
T1 construct: JH1 domain catalytic

For a further experiment, the target named is T2, PAK7 (Homo sapiens, UniProt Q9P286).
T2 construct: gene PAK5

The target of the next experiment is T3, MGC42105 (Homo sapiens, UniProt Q8IY84).
T3 construct: gene NIM1K

For a further experiment, the target named is T4, ABL1-phosphorylated (Homo sapiens, UniProt P00519).
T4 construct: phosphorylated

The target of another experiment is T5, GSG2 (Homo sapiens, UniProt Q8TF76).
T5 construct: gene HASPIN

Experiment [2] addresses T6, RPS6KA4(Kin.Dom.2-C-terminal) (Homo sapiens, UniProt O75676).
T6 construct: Kin.Dom.2 C-terminal

T2 sequence (Q9P286 whole entry): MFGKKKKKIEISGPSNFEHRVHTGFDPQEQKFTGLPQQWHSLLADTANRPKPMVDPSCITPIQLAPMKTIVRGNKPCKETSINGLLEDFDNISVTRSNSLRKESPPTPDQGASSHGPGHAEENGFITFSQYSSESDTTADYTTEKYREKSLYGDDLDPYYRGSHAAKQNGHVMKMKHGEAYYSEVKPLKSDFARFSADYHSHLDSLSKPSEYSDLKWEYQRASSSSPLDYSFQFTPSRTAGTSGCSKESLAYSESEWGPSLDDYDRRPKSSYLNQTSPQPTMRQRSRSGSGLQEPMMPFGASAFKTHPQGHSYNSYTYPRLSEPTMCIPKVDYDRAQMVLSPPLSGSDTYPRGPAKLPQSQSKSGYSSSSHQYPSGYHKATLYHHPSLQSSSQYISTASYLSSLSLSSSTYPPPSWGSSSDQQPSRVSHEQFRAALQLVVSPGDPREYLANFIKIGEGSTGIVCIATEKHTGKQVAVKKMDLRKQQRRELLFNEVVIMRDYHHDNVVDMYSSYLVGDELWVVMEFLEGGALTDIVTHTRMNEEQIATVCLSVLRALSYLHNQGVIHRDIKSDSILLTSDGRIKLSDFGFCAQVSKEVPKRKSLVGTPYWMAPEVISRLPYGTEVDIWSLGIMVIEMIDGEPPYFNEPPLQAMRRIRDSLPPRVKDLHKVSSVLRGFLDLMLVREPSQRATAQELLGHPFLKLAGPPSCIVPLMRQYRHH
RIPK2, sequence (O43353 whole entry): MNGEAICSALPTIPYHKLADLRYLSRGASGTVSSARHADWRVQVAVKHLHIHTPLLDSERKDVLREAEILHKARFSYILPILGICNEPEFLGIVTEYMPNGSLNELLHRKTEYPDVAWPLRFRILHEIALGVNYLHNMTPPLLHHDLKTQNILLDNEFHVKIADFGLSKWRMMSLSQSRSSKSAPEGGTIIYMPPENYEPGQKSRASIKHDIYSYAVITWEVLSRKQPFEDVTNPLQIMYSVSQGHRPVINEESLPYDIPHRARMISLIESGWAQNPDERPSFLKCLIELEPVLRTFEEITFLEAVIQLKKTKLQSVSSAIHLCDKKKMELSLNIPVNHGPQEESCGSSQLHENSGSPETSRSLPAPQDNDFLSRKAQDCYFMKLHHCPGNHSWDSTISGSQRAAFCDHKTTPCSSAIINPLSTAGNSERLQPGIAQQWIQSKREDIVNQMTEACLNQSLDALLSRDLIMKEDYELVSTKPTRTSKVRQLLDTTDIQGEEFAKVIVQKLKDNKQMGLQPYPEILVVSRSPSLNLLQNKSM
ROS1, sequence (P08922 whole entry): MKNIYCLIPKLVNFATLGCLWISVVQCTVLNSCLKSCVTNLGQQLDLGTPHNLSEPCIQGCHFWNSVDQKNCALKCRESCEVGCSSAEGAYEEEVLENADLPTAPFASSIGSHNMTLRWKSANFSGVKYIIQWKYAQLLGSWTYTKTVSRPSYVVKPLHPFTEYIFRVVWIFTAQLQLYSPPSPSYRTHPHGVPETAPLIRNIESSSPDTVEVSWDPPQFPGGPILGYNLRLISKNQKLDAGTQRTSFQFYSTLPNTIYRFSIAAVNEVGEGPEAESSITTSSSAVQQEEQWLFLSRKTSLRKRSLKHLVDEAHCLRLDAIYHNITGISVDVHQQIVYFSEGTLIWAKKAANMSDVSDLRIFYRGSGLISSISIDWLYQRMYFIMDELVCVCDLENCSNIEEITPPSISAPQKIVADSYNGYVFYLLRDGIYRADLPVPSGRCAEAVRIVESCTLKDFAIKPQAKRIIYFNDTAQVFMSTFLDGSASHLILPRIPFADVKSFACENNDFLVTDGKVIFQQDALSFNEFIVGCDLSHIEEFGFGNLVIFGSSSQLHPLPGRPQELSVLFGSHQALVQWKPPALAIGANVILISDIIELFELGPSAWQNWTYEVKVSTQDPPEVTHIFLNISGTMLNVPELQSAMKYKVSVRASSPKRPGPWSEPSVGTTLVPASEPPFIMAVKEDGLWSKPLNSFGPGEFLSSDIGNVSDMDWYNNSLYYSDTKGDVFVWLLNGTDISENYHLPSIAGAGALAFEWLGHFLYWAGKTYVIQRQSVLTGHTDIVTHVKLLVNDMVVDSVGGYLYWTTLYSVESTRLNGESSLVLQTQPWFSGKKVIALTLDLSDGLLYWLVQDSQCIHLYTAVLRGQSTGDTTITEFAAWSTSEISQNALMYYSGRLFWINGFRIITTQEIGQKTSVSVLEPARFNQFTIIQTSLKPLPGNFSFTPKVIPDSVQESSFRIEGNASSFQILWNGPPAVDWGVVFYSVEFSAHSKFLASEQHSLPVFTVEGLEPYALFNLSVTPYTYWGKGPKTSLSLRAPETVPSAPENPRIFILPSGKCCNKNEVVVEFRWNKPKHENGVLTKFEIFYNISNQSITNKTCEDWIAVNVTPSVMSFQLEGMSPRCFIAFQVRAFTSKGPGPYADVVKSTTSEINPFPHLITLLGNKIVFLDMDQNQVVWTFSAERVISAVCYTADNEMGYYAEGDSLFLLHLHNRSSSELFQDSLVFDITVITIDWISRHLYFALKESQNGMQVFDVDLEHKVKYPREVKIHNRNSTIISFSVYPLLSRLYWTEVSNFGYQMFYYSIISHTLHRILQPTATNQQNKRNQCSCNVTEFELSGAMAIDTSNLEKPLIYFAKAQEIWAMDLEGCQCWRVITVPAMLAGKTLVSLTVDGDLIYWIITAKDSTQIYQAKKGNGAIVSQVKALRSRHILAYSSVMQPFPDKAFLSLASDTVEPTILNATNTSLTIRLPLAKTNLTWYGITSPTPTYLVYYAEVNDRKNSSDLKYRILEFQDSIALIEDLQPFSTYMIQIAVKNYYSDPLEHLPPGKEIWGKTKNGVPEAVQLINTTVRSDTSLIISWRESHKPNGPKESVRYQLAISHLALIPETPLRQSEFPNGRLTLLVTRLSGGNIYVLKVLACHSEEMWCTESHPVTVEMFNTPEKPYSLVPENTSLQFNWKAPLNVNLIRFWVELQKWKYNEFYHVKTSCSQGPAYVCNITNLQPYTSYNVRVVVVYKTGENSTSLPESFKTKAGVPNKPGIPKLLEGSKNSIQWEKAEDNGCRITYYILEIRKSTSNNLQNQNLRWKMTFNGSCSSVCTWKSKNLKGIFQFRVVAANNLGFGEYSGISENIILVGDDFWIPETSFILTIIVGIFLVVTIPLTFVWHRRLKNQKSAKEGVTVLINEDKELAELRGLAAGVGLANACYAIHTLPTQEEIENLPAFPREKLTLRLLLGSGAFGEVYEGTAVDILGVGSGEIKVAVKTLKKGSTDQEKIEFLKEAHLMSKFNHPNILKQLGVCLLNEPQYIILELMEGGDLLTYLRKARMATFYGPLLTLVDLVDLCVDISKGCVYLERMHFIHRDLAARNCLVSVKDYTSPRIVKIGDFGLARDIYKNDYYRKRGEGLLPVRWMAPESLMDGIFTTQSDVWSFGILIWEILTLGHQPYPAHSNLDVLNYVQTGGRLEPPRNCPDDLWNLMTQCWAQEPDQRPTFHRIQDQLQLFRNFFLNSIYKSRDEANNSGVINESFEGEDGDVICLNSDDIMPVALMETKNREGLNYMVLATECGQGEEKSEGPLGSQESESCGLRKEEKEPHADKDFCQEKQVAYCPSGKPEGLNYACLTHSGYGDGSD
DAPK3, sequence (O43293 whole entry): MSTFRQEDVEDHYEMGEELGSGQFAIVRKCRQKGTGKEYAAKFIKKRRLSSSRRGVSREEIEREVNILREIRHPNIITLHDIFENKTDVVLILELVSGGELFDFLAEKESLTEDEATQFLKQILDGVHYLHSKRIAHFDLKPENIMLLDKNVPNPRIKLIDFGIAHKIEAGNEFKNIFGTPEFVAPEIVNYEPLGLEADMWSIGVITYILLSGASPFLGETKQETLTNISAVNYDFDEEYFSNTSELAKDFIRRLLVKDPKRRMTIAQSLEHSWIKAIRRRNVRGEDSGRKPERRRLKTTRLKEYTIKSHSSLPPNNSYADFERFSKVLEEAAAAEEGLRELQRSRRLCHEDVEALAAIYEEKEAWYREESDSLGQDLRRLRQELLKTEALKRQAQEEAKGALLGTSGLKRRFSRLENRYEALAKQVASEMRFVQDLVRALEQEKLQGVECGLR
CSNK1E, sequence (P49674 whole entry): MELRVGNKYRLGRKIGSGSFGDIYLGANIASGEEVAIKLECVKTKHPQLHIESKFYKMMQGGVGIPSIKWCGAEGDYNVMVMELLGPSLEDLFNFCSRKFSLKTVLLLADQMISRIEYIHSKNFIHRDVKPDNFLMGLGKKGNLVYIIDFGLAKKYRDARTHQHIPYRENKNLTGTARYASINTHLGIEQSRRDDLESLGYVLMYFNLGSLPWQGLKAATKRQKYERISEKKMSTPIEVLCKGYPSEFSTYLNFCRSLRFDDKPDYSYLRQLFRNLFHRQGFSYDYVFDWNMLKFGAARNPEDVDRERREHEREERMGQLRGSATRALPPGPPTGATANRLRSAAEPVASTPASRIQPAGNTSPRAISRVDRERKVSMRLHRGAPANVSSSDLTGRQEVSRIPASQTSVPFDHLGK
T3 sequence (Q8IY84 whole entry): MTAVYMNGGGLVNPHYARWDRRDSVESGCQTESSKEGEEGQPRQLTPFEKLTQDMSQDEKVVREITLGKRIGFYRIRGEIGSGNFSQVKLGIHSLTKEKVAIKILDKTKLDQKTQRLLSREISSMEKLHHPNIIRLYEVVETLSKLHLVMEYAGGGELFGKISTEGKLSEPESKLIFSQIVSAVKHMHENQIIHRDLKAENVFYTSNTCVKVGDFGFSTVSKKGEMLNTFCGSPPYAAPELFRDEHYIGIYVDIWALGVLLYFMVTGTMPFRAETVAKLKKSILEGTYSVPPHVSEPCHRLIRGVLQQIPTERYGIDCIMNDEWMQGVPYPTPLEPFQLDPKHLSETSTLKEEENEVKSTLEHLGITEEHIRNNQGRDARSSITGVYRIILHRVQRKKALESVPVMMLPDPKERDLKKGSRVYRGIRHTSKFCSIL

As for `Oc1ccc(C2=Cc3ccc(O)cc3OC2)cc1` [compound 1, idronoxil], the remaining binding at 10 µM came out at 55% on LATS2; 82% at ROCK2; 74% on CSNK1E; 88% at PRKACB; 97% on SIK1; 98% on CDC42BPA. Moreover, the remaining binding at 10 µM was determined as 100% at DDR2; 74% in experiment [1]; 81% on RIPK2; 95% at PAK7; 93% at MGC42105; 97% at MARK4. Further, the remaining binding at 10 µM on ABL1-phosphorylated is 35%; on ROS1, 73%; on GSG2, 5.3%; on DAPK3, 49%; at TNNI3K, 99%; on RIPK1, 78%. Also, the remaining binding at 10 µM in experiment [2] was 53%; on MAP2K7, 91%.
